{"source": "patent US11555212B2", "about": "“Process for the production of sulfated phenolic compounds using modified Escerichia coli” (CysBio ApS, priority 2016, dated 2023)", "key": {"RmXAL": {"biological_target": "T1, RmXAL (Rhodotorula mucilaginosa, UniProt P10248)", "T1 construct": "The gene encoding RmXAL was codon optimized using standard algorithms for expression in E. coli; expressed in transfected cells; host or cells: E. coli BL21(DE3)pLysS", "T1 sequence (P10248 whole entry)": "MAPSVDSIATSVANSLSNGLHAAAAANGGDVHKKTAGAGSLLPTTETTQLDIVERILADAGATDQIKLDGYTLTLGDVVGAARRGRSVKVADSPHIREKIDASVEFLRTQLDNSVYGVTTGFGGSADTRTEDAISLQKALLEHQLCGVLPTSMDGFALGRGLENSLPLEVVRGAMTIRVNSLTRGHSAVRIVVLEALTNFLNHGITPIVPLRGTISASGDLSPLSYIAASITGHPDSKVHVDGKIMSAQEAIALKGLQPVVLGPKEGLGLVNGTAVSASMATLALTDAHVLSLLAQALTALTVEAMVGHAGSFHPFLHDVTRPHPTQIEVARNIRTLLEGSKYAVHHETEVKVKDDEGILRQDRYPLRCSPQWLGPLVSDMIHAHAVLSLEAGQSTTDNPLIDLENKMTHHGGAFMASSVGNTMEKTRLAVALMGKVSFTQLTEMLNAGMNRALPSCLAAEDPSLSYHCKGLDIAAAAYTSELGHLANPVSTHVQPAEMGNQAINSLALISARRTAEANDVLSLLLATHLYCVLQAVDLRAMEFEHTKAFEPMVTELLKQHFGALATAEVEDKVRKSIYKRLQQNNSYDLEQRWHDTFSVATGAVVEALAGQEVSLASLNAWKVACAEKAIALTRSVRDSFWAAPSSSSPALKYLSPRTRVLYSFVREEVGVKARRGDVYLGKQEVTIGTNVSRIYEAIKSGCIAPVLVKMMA", "experiment": "pHCA and zosteric acid in culture media of E. coli expressing a tyrosine ammonia lyase", "type": "cell-based, Rhodotorula mucilaginosa/Rhodotorula rubra", "settings": "E. coli BL21(DE3)pLysS expressing RmXAL alone, M9 glucose, 0.1 mM IPTG, no substrate added", "method": "(§1) The concentration of p-courmaric acid (pHCA) and zosteric acid in the supernatant was quantified by high performance liquid chromatography (HPLC) and compared to chemical standards. HPLC was done on a Thermo setup using a HS-F5 column and mobile phases: 5 mM ammonium formate pH 4.0 (A) and acetonitrile (B) at 1.5 mL min-1, using a gradient elution starting at 5% B. From 0.5 min after injection to 7 min, the fraction of B increased linearly from 5% to 60%, and between 9.5 min and 9.6 the fraction of B decreased back to 5%, and remaining there until 12 min. pHCA and zosteric acid were quantified by measuring absorbance at 277 nm.\nThe enzyme RmXAL from Rhodotorula mucilaginosa/Rhodotorula rubra (SEQ ID NO: 46) has tyrosine ammonia lyase activity, thus catalyzing the non-oxidative deamination of the amino acid tyrosine, releasing p-coumaric acid (pHCA) and ammonia. The gene encoding RmXAL was codon optimized using standard algorithms for expression in E. coli available by GeneArt (Life Technologies) and amplified by PCR using the primers shown in Table 5 and inserted into the pCDFDuet-1 vector (Novagen/Life Technologies), which had been digested by the restriction enzymes NdeI and BgIII, using Gibson reaction (New England Biolabs). […]"}, "RsTAL": {"biological_target": "T2, RsTAL (Cereibacter sphaeroides, UniProt Q3IWB0)", "T2 construct": "were optimized for E. coli and synthesized by GeneArt, amplified by PCR; expressed in transfected cells; host or cells: E. coli BL21(DE3), plasmid pCBJ215", "T2 sequence (Q3IWB0 whole entry Q21E/A24S/I74V/S113A/S143M/R238G/D285G/G287S)": "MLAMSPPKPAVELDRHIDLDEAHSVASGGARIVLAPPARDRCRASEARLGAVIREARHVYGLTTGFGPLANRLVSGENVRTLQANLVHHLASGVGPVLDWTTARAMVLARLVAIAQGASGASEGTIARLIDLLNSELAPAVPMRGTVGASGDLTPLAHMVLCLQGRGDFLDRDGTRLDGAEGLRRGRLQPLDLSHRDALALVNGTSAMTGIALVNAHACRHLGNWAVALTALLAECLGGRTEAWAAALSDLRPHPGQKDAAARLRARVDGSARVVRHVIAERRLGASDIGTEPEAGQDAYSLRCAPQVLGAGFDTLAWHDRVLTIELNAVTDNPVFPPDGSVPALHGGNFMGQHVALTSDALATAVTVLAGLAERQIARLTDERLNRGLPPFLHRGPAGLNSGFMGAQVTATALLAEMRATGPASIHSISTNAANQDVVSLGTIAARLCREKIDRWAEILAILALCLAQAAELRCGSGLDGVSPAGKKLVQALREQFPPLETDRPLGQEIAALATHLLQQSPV", "experiment": "Titers of pHCA and zosteric acid, E. coli co-expressing tyrosine ammonia-lyase and SULT1A1 rat", "type": "cell-based, Rhodobacter sphaeroides", "settings": "E. coli BL21(DE3) with SULT1A1 rat and RsTAL; M9, 0.2% glucose, 2 mM tyrosine, 1 mM IPTG; overnight 37° C.; supernatant", "method": "as §1\nThe genes encoding the tyrosine ammonia-lyases RcTAL (from Rhodobacter capsulatus; SEQ ID NO: 50), RsTAL (from Rhodobacter sphaeroides; SEQ ID NO: 43) and FjTAL (from Flavobacterium johnsoniae; SEQ ID NO: 40) were cloned into expression vectors as follows. […]\nStrains harboring recombinant plasmids were pre-cultured in 2×YT liquid medium with 100 μg mL^−1 ampicillin and 50 μg mL^−1 spectinomycin and incubated at 37° C. and 250 rpm overnight. […] The supernatants were then collected by centrifugation twice and applied to HPLC analysis as described in example 1, and the titers of p-coumaric acid (pHCA) and zosteric acid (ZA) were quantified using chemical standards and are presented in the table below."}, "SULT1A1 rat": {"biological_target": "T3, SULT1A1 rat (Rattus norvegicus, UniProt P17988)", "T3 construct": "expressed in transfected cells; host or cells: Saccharomyces cerevisiae CEN.PK102-5B (plasmids pCBJ283, pCBJ284)", "T3 sequence (P17988 whole entry)": "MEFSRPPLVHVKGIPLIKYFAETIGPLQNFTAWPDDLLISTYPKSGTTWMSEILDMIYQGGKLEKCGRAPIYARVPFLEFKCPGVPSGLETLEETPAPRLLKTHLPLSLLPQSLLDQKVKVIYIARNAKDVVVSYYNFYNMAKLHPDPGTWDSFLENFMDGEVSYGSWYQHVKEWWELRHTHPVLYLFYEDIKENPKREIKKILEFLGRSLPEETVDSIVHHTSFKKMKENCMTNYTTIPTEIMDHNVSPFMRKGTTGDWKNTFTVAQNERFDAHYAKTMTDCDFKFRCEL", "experiment": "Titers of zosteric acid in Saccharomyces cerevisiae expressing a sulfotransferase", "type": "cell-based", "settings": "S. cerevisiae CEN.PK102-5B, modified Delft medium, 10 mM p-coumaric acid, overnight 30° C.", "method": "as §1\nThe gene encoding aryl sulfotransferase SULT1A (Example 1) was cloned after a TEF1 promoter into an episomal plasmid with a 2-micron origin of replication as follows. The gene was amplified by PCR using primers CBJP633 and CBJP634. Alternatively, the gene was codon-optimized for E. coli and synthesized by GeneArt and amplified by primers CBJP635 and CBJP636. The TEF1 promoter (Jensen et al., 2014, FEMS Yeast Res 14: 238-248) was amplified by PCR using the primers PTEF1_fw and PTEF1_rv. Plasmid pCfB132 (Jensen et al., supra) was digested by restriction enzymes AsiSI and Nt.Bsml. […]"}}}
{"compound": "O=C(O)/C=C/c1ccc(OS(=O)(=O)O)cc1", "note": "[Zosteric acid, zosteric acid]", "values": [{"measurement": "Zosteric acid formed", "setting": "RmXAL", "result": "Not detectable"}, {"measurement": "Titer of zosteric acid (ZA)", "setting": "RsTAL", "result": "<1", "unit": "µM"}, {"measurement": "μM ZA (averages and standard deviations of replicate experiments)", "setting": "SULT1A1 rat; SULT1A1 rat (codon optimized for E. coli)", "result": "46.2 ± 3.5", "unit": "µM"}, {"measurement": "μM ZA (averages and standard deviations of replicate experiments)", "setting": "SULT1A1 rat; SULT1A1 rat (native)", "result": "37.8 ± 5.7", "unit": "µM"}]}
{"compound": "O=C(O)/C=C/c1ccc(O)cc1", "note": "[pHCA, p-coumaric acid]", "values": [{"measurement": "pHCA", "setting": "RmXAL", "result": 0.04, "unit": "mM"}, {"measurement": "Titer of p-coumaric acid (pHCA)", "setting": "RsTAL", "result": 78, "unit": "μM"}]}
